Active and inactive are the calls of the source. The rule behind the calls is not given here.

For series [1], the target named is T1, Lutropin-choriogonadotropic hormone receptor (Homo sapiens, UniProt P22888). Briefly: Antagonist activity at human luteinizing hormone receptor assessed as reduction in agonist-induced cAMP production preincubated for 20 mins followed by agonist solution addition after 60 mins by cell based TR-FRET assay. The class given is functional. On the technique in general: Changes in cAMP serve as a functional read-out for many G protein-coupled receptors.

In series [2] the target is T2, Follicle-stimulating hormone receptor (Homo sapiens, UniProt P23945).
T2 sequence (P23945 whole entry): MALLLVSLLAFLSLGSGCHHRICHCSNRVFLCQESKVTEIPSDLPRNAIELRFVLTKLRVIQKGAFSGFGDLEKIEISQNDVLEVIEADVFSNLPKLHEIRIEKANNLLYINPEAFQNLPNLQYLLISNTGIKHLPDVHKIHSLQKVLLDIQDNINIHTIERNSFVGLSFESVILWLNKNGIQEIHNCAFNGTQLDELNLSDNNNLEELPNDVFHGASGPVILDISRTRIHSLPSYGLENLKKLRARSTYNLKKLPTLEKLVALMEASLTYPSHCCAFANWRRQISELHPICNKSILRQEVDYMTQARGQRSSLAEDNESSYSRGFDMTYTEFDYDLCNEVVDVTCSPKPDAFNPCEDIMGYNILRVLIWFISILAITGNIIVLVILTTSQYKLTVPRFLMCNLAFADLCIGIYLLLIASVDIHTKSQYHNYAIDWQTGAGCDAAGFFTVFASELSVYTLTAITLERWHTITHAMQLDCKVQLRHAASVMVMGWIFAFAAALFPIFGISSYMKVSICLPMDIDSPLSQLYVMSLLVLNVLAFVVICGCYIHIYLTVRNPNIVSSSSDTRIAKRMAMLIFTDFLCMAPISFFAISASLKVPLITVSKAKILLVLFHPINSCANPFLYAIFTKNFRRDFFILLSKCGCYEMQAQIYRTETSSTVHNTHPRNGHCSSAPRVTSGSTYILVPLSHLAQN
Briefly: Antagonist activity at human follicle stimulating hormone receptor assessed as reduction in agonist-induced cAMP production preincubated for 20 mins followed by agonist solution addition and measured after 120 mins by cell based TR-FRET assay. The class given is functional.

Series [3] concerns the target Lutropin-choriogonadotropic hormone receptor (Mus musculus, UniProt P30730). The experiment in a line: Antagonist activity at luteinizing hormone receptor in mouse MLTC-1 cells assessed as reduction in agonist-induced cAMP production preincubated for 30 mins followed by agonist solution addition and measured after 30 mins by cell based TR-FRET assay. In kind it is functional.

Series [4] deals with Lutropin-choriogonadotropic hormone receptor (Rattus norvegicus, UniProt P16235). The experiment in a line: Antagonist activity at rat luteinizing hormone receptor expressed in rat ovary granulosa GLHR15 cell suspension assessed as reduction in agonist-induced cAMP production preincubated for 30 mins followed by agonist solution addition after 30 mins by cell based TR-FRET assay. In kind it is functional.

Another series deals with Thyrotropin receptor (Homo sapiens, UniProt P16473). The experiment in a line: Antagonist activity at human thyroid stimulating hormone receptor expressed in rat HTC133 cells assessed as reduction in agonist-induced cAMP production preincubated for 20 mins followed by agonist solution addition and measured after 60 mins by cell based TR-FRET assay. The class given is functional.

The nature of series [5]: Lipophilicity, logD of the compound at pH 7.5 by reversed-phase HPLC. The class given is physicochemical. The note with it: buffer.
Series [6] can be described thus: Clearance in human liver microsomes at 1 uM measured after 2 to 60 mins in presence of glucose-6-phosphate by LC-MS/MS analysis. In kind it is ADME, Microsome. (In general: Microsomes from liver hold many membrane-bound enzymes, among them those of drug oxidation.)
Series [7] can be described thus: Maximum oral bioavailability in human liver microsomes based well stirred liver model at 1 uM measured after 2 to 60 mins in presence of glucose-6-phosphate by LC-MS/MS analysis. The class given is ADME, Microsome. The note with it: read-out: Fmax.
Series [8] has as its target T1, Lutropin-choriogonadotropic hormone receptor. Briefly: Agonist activity at human luteinizing hormone receptor incubated for 60 mins by cell based TR-FRET assay. The note with it: human, 1 h.
The target of series [9] is Relaxin receptor 1 (Homo sapiens) (UniProt Q9HBX9). The experiment in a line: Antagonist activity at human RXFP1 assessed as reduction in agonist-induced cAMP production preincubated for 20 mins followed by mutRelaxin agonist addition measured after 60 mins by cell based TR-FRET assay. The class given is functional.
Relaxin receptor 1 (Homo sapiens), sequence (Q9HBX9 whole entry): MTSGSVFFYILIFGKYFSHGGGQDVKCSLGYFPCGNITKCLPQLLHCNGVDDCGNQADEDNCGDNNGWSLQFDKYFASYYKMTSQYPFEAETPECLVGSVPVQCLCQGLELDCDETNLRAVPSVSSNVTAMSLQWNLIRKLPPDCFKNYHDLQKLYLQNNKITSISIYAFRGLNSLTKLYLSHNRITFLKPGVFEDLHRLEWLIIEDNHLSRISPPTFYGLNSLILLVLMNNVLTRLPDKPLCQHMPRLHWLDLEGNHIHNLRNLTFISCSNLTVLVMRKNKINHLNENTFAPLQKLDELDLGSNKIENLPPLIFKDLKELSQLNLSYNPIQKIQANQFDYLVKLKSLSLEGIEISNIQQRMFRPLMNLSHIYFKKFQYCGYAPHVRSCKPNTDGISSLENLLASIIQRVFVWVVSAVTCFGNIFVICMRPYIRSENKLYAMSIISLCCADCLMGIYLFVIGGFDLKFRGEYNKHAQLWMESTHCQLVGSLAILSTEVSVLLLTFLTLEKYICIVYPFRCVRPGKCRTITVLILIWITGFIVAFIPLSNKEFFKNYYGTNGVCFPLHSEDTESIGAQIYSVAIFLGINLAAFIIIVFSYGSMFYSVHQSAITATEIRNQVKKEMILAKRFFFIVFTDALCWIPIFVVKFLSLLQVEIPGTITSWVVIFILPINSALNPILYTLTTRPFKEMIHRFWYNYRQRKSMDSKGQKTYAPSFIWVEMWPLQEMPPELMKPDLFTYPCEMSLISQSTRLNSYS

T1 sequence (P22888 whole entry): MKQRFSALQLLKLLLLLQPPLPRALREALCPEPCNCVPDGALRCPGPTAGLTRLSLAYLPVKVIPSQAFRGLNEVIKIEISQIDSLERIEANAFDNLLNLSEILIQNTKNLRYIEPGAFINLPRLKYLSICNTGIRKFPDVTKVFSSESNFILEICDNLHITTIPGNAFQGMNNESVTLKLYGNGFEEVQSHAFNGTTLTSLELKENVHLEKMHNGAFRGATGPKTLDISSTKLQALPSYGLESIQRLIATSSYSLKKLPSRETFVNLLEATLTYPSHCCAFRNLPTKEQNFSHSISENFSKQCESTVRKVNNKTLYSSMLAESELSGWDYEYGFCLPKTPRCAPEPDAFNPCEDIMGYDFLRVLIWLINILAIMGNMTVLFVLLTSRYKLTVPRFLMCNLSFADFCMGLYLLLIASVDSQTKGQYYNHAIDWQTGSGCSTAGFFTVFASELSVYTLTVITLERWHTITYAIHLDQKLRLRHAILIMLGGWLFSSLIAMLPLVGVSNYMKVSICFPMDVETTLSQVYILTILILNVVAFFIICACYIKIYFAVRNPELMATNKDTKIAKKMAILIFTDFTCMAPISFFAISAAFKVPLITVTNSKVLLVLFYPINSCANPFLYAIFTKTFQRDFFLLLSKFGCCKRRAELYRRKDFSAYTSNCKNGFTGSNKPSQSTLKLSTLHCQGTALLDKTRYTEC
Lutropin-choriogonadotropic hormone receptor (Mus musculus, UniProt P30730), sequence (P30730 whole entry): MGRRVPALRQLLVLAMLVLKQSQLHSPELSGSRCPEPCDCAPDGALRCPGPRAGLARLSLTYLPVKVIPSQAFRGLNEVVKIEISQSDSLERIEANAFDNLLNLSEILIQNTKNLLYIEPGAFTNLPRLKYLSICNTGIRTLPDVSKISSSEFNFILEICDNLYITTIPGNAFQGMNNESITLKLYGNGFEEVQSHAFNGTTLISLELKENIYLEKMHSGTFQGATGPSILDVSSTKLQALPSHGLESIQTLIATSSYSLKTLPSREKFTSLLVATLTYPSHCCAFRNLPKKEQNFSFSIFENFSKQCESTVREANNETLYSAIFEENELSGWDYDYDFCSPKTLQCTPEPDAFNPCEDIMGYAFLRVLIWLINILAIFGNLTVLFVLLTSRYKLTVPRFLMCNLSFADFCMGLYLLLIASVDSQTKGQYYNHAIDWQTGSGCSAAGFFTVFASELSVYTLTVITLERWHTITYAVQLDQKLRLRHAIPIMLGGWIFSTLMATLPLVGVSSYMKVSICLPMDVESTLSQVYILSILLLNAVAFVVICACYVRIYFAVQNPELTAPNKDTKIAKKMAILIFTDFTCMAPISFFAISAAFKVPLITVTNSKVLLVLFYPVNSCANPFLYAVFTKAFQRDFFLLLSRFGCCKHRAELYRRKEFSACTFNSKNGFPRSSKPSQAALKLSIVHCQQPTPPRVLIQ
Lutropin-choriogonadotropic hormone receptor (Rattus norvegicus, UniProt P16235), sequence (P16235 whole entry): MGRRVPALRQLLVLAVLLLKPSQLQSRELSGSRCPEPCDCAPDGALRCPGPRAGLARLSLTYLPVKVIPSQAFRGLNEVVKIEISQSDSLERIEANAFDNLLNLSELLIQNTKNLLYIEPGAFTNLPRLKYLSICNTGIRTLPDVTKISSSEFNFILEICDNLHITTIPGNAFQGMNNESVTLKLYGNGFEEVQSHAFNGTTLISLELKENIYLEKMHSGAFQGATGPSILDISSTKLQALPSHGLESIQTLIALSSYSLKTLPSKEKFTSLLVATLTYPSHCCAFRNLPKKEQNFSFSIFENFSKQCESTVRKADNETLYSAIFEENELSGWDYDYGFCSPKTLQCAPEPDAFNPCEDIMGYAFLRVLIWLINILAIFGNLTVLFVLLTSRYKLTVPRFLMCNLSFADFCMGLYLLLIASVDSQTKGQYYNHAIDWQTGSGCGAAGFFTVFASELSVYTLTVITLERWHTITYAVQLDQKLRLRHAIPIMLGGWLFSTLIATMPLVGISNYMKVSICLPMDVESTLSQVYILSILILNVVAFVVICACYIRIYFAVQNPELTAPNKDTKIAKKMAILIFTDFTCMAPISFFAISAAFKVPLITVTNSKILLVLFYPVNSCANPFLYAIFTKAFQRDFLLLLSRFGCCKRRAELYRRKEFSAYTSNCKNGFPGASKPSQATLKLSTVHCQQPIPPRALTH
Thyrotropin receptor, sequence (P16473 whole entry): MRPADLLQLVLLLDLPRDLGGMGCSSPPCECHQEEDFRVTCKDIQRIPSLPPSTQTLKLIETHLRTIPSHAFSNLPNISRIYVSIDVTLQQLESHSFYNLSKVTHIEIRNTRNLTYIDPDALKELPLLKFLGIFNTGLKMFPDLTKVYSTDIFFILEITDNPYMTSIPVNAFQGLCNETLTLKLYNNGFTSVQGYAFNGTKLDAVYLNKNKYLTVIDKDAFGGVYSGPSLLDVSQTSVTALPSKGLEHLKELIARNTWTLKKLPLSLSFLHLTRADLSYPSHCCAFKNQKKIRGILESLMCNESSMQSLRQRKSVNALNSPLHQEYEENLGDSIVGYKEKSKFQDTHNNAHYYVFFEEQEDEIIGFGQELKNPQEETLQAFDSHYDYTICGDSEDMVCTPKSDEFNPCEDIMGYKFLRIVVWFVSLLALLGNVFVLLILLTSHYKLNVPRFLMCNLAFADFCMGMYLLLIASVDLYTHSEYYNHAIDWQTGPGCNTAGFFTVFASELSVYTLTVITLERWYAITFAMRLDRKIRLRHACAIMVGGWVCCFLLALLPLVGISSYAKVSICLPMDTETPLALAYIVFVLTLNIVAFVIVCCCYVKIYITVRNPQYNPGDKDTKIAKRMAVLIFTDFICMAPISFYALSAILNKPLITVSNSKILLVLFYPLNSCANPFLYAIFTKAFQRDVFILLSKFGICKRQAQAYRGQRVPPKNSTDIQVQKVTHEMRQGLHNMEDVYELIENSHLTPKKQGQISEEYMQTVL

`COc1ccc([C@@H]2c3ccsc3CCN2C(=O)Nc2cc(Cl)cc(Cl)c2)cc1`: the half-inhibitory concentration (IC50) in series [1] is 6790 nM; in [2], greater than 16.5 µM; in [3], greater than 30 µM; in series [4], 4890 nM; at Thyrotropin receptor, greater than 30 µM.
`COc1cc(NC(=O)N2CCc3sccc3[C@@H]2c2ccccc2)cc(OC)c1`: the IC50 in series [1] is 193 nM.
Turning to `COc1ccc([C@H]2c3ccsc3CCN2C(=O)Nc2cc(Cl)cc(Cl)c2)cc1`, the IC50 in [1] was 403 nM; in series [2], greater than 16.5 µM; in [3], greater than 30 µM; in series [4] it was 412 nM; at Thyrotropin receptor, greater than 30 µM.
Turning to `O=C(Nc1ccc(Oc2ccc(F)cc2)nc1)N1CCc2ncccc2[C@@H]1c1ccc(F)cc1`, the IC50 in series [1] amounted to 312 nM. In series [5], this compound gave a chromatographic logD of 3.2. Besides, in series [6], the CLhep predicted at 1 µM was 3.33 mL/min/kg. For the same compound, the Fh at 1 µM in series [7] is 83%.
The like results for `O=C(Nc1ccc(Oc2ccc(F)cc2)cc1)N1CCc2ncccc2[C@@H]1c1ccc(F)cc1` were, in that order, 102 nM, 3.9, 5 mL/min/kg and 75%.
For `O=C(Nc1ccccc1)N1CCc2sccc2C1c1ccc(Cl)cc1` (racemic) the same measures were 95 nM, 4, 16.7 mL/min/kg and 26%.
Consider `O=C(Nc1ccc(F)c(Cl)c1)N1CCc2sccc2C1c1ccc(Cl)cc1` (racemic), for which the IC50 in [1] was 174 nM. In series [5], this compound registered a chromatographic logD of 5.1.
The like results for `COc1ccc(C2c3ccsc3CCN2C(=O)Nc2ccc(F)c(C(N)=O)c2)cc1` (racemic) were, in that order, 1680 nM and 2.8.
The like results for `NC(=O)c1ccc(C2c3ccsc3CCN2C(=O)Nc2cc(Cl)cc(Cl)c2)cc1` (racemic) were, in that order, greater than 16500 nM and 3.7.
Turning to `O=C(Nc1ccc(F)c(OC(F)(F)F)c1)N1CCc2sccc2C1c1ccc(Cl)cc1` (racemic), the IC50 in series [1] amounted to 81 nM. Moreover, in series [5], the chromatographic logD stood at 5.2. Also, in series [6], the CLhep predicted at 1 µM was 13.3 mL/min/kg. Further, the Fh at 1 µM in series [7] was determined as 42%.
In the case of `Cc1ccccc1C1c2ccsc2CCN1C(=O)Nc1cc(Cl)cc(Cl)c1` (racemic), the IC50 in series [1] is greater than 16500 nM.
Turning to `O=C(Nc1cc(Cl)cc(Cl)c1)N1CCc2sccc2C1c1ccc(F)c(F)c1` (racemic), the IC50 in series [1] turned out to be 1850 nM. Moreover, the CLhep predicted at 1 µM in series [6] is 13.3 mL/min/kg. Also, the Fh at 1 µM in series [7] turned out to be 40%.
For the compound `COc1ccc(C2c3ccsc3CCN2C(=O)Nc2ccc(F)c(N3CCS(=O)(=O)CC3)c2)cc1` (racemic), the IC50 in series [1] was greater than 16500 nM. Further, in series [5], the chromatographic logD came out at 3.1.
For `Cc1ccc(C2c3ccsc3CCN2C(=O)Nc2cc(Cl)cc(Cl)c2)cc1` (racemic), in [1], the IC50 was 2610 nM. This compound came in with a chromatographic logD in series [5] of 5.5. Moreover, the CLhep predicted at 1 µM in series [6] is 20 mL/min/kg. In [7], the Fh at 1 µM came out at 8%.
As to `O=C(Nc1cc(Cl)cc(Cl)c1)N1CCc2sccc2C1c1ccc(C(F)(F)F)cc1` (racemic), in series [1], the IC50 worked out at 3650 nM. In addition, in [6], the CLhep predicted at 1 µM was 11.7 mL/min/kg. Also, the Fh at 1 µM in [7] stood at 51%.
Take `O=C(Nc1cc(Cl)cc(Cl)c1)N1CCc2sccc2C1c1cccnc1` (racemic): the IC50 in series [1] turned out to be 7470 nM. The chromatographic logD in series [5] came out at 4.2. For the same compound, in series [6], the CLhep predicted at 1 µM is 20 mL/min/kg. Also, the Fh at 1 µM in [7] was 11%.
On to `COc1ccc(C2c3ccsc3CCN2C(=S)Nc2cc(OC)cc(OC)c2)cc1` (racemic), for which, in series [1], the IC50 amounted to 3320 nM. In series [5], this compound yielded a chromatographic logD of 3.7.
`COc1ccc(C2c3ccsc3CCN2C(=O)Nc2cc(OC)cc(OC)c2)cc1` (racemic): the IC50 in series [1] turned out to be 207 nM. The compound also came in with a chromatographic logD in series [5] of 3.6. For the same compound, the CLhep predicted at 1 µM in series [6] is 21.7 mL/min/kg. For the same compound, the Fh at 1 µM in [7] came to 3%.
On to `CC(C)c1ccc(C2c3ccsc3CCN2C(=O)Nc2cc(Cl)cc(Cl)c2)cc1` (racemic), for which, in series [1], the IC50 is greater than 16500 nM.
As to `O=C(Nc1ccc(Oc2ccc(F)cc2)cc1)N1CCc2sccc2C1c1ccc(Cl)cc1` (racemic), the IC50 in [1] was 127 nM. The same compound gave a chromatographic logD in [5] of 5.3. Also, the CLhep predicted at 1 µM in series [6] was 10 mL/min/kg. For the same compound, the Fh at 1 µM in series [7] was determined as 56%.
On to `O=C(Nc1cc(Cl)cc(Cl)c1)N1CCc2sccc2C1c1ccc(=O)[nH]c1` (racemic), for which, in series [1], the IC50 was found to be 2310 nM. In addition, the chromatographic logD in series [5] was determined as 3.7.
As to `COc1ccc(C2c3ccsc3CCN2C(=O)Cc2cc(C)cc(C)c2)cc1` (racemic), the IC50 in series [1] was greater than 16000 nM. The same compound displayed a chromatographic logD in series [5] of 4.8.
`O=C(Nc1cc(Cl)cc(Cl)c1)N1CCc2sccc2C1c1ccccc1` (racemic): in series [1], the 50% inhibitory concentration (IC50) came out at 1620 nM.
Still for that read-out and setting: in the case of `O=C(Nc1cc(Cl)cc(Cl)c1)N1CCc2sccc2C1c1ccccn1` (racemic) it was greater than 16500 nM.
As for `O=C(Nc1cc(Cl)cc(Cl)c1)N1CCc2sccc2C1c1ccccc1F` (racemic), the IC50 in series [1] came to 3240 nM. This compound also came in with a chromatographic logD in [5] of 4.8. In [6], the CLhep predicted at 1 µM is 18.3 mL/min/kg. Besides, the Fh at 1 µM in [7] was 17%.
Consider `O=C(Nc1cc(Cl)cc(Cl)c1)N1CCc2sccc2C1c1ccncc1` (racemic), for which the IC50 in series [1] came out at 5180 nM. This compound also had a chromatographic logD in series [5] of 4.2.
Regarding `COc1ccc(C2c3ccsc3CCN2C(=O)Nc2ccc(Cl)cc2)cc1` (racemic), in series [1], the IC50 worked out at 107 nM. The same compound gave a chromatographic logD in series [5] of 3.9. Besides, the CLhep predicted at 1 µM in series [6] is 18.3 mL/min/kg. Also, in series [7], the Fh at 1 µM came out at 18%.
Regarding `O=C(Nc1cccc(Oc2ccccc2)c1)N1CCc2sccc2C1c1ccc(Cl)cc1` (racemic), in series [1], the IC50 turned out to be 332 nM. For the same compound, in series [5], the chromatographic logD is 5.4.
`COc1ccc(C2c3ccsc3CCN2C(=O)Nc2cc(C)cc(C)c2)cc1` (racemic): the IC50 in series [1] worked out at 580 nM. The chromatographic logD in series [5] came out at 4.1.
`COc1ccc(C2c3ccsc3CCN2C(=O)Nc2cccc(Cl)c2)cc1` (racemic): in [1], the IC50 is 275 nM. Also, in [5], the chromatographic logD stood at 4.2. Also, the CLhep predicted at 1 µM in [6] was 20 mL/min/kg. For the same compound, the Fh at 1 µM in [7] was 7%.
In the case of `O=C(Nc1cc(Cl)cc(Cl)c1)N1CCc2sccc2C1c1cccc(F)c1` (racemic), in series [1], the IC50 is 3130 nM. The chromatographic logD in series [5] was determined as 5.1.
`O=C(Nc1cc(Cl)cc(Cl)c1)N1CCc2sccc2C1c1ccc(Cl)cc1` (racemic): the IC50 in [1] is 486 nM. Moreover, in series [6], the CLhep predicted at 1 µM is 11.7 mL/min/kg. In addition, the Fh at 1 µM in series [7] came to 48%.
As to `COc1ccc(C2c3ccsc3CCN2C(=O)Nc2cc(Cl)cc(Cl)c2)cc1` (racemic), the IC50 in series [1] was 378 nM; in [2], greater than 16.5 µM; in series [3], greater than 30 µM; in [4], 212 nM; at Thyrotropin receptor, greater than 30 µM. Further, the Activity result in series [8] is given as “Not Active”. Further, the inhibition entry in [9] is “inactive”. Besides, in series [5], the chromatographic logD turned out to be 5. Further, the CLhep predicted at 1 µM in [6] is 21.7 mL/min/kg. In addition, in series [7], the Fh at 1 µM was found to be 3%.

The IC50 is the concentration that inhibits the measured activity by half. What is called chromatographic logD is lipophilicity estimated from chromatographic retention. A lower chromatographic logD goes with lower lipophilicity.
